Drawing on US11168086B2, “Methods of synthesizing pyrazine compounds” (Hoffmann-La Roche Inc., priority 2015, dated 2021), this text covers EC50 for ten compounds.

The structures appear in SMILES notation.

The subject of this assay is HBV. The assay can be described thus: HBV inhibition assay: anti-HBV activity in vitro in HepG2.2.15 cells (extracellular HBV DNA by qPCR). The note with it: Hepatitis B virus, 120 h, five days after compound treatment, extracellular HBV DNA in culture supernatant by qPCR, concentration at which HBV replication is inhibited by 50%. The format is cell-based. Summed up:
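HepG2.2.15 cells (stably carrying HBV genome) treated with half-log serially diluted compounds at 0.5% DMSO final for five days. Extracellular HBV DNA in supernatant quantified by qPCR after Proteinase K digestion; EC50 is concentration giving 50% inhibition of replication.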
(In general: Real-time PCR tracks product formation cycle by cycle.)
A word on the EC50: it is the concentration giving half of the maximal effect. Turning to `C[C@H]1Cn2ncc(N3C[C@H](Oc4ncccn4)CC3=O)c2CN1C(=O)Nc1cc(F)c(F)c(F)c1` [Example 415, (6S)-6-methyl-3-[(4R)-2-oxo-4-pyrimidin-2-yloxy-pyrrolidin-1-yl]-N-(3,4,5-trifluorophenyl)-6,7-dihydro-4H-pyrazolo[1,5-a]pyrazine-5-carboxamide], the EC50 was 25 nM.
The figure for `C[C@H]1Cn2ncc(N3Cc4ccnn4CC3=O)c2CN1C(=O)Nc1cc(F)c(F)c(F)c1` [Example 419, (6S)-6-methyl-3-(6-oxo-4,7-dihydropyrazolo[1,5-a]pyrazin-5-yl)-N-(3,4,5-trifluorophenyl)-6,7-dihydro-4H-pyrazolo[1,5-a]pyrazine-5-carboxamide] is 71 nM; for `C[C@H]1Cn2ncc(N3CC4(CCC4)CC3=O)c2CN1C(=O)Nc1cc(F)c(F)c(F)c1` [Example 421, (6S)-6-methyl-3-(7-oxo-6-azaspiro[3.4]octan-6-yl)-N-(3,4,5-trifluorophenyl)-6,7-dihydro-4H-pyrazolo[1,5-a]pyrazine-5-carboxamide] it is 14 nM; for `C[C@H]1Cn2ncc(N3CC4(CCC4)C(O)C3=O)c2CN1C(=O)Nc1cc(F)c(F)c(F)c1` (stereo partly drawn) [Example 422, (6S)-3-(8-hydroxy-7-oxo-6-azaspiro[3.4]octan-6-yl)-6-methyl-N-(3,4,5-trifluorophenyl)-6,7-dihydro-4H-pyrazolo[1,5-a]pyrazine-5-carboxamide] it is 65 nM.
Next, `C[C@H]1Cn2ncc(N3CC4(CC4)C(O)C3=O)c2CN1C(=O)Nc1cc(F)c(F)c(F)c1` (stereo partly drawn) [Example 424, (6S)-3-(7-hydroxy-6-oxo-5-azaspiro[2.4]heptan-5-yl)-6-methyl-N-(3,4,5-trifluorophenyl)-6,7-dihydro-4H-pyrazolo[1,5-a]pyrazine-5-carboxamide]: 44 nM.
The figure for `CC1CCN(c2cnn3c2CN(C(=O)Nc2cc(F)c(F)c(F)c2)[C@@H](C)C3)C(=O)O1` (stereo partly drawn) [Example 425, (6S)-6-methyl-3-(6-methyl-2-oxo-1,3-oxazinan-3-yl)-N-(3,4,5-trifluorophenyl)-6,7-dihydro-4H-pyrazolo[1,5-a]pyrazine-5-carboxamide] is 87 nM; for `CC1CCOC(=O)N1c1cnn2c1CN(C(=O)Nc1cc(F)c(F)c(F)c1)[C@@H](C)C2` (stereo partly drawn) [Example 426, (6S)-6-methyl-3-(4-methyl-2-oxo-1,3-oxazinan-3-yl)-N-(3,4,5-trifluorophenyl)-6,7-dihydro-4H-pyrazolo[1,5-a]pyrazine-5-carboxamide] it is 29 nM; for `C[C@H]1Cn2ncc(N3C[C@@H](Oc4ncccn4)[C@H](O)C3=O)c2CN1C(=O)Nc1cc(F)c(F)c(F)c1` [Example 428, (6S)-3-[(3S,4R)-3-hydroxy-2-oxo-4-pyrimidin-2-yloxy-pyrrolidin-1-yl]-6-methyl-N-(3,4,5-trifluorophenyl)-6,7-dihydro-4H-pyrazolo[1,5-a]pyrazine-5-carboxamide] it is 6 nM.
Compound `C[C@@H]1[C@@H](Oc2ncccn2)[C@H](O)C(=O)N1c1cnn2c1CN(C(=O)Nc1cc(F)c(F)c(F)c1)[C@@H](C)C2` [Example 436, (6S)-3-[(2R,3R,4S)-4-hydroxy-2-methyl-5-oxo-3-pyrimidin-2-yloxy-pyrrolidin-1-yl]-6-methyl-N-(3,4,5-trifluorophenyl)-6,7-dihydro-4H-pyrazolo[1,5-a]pyrazine-5-carboxamide] displayed an EC50 of 16 nM.
The compound `C[C@H]1Cn2ncc(N3CC(c4ncccn4)CC3=O)c2CN1C(=O)Nc1cc(F)c(F)c(F)c1` (stereo partly drawn) [Example 437, (6S)-6-methyl-3-(2-oxo-4-pyrimidin-2-yl-pyrrolidin-1-yl)-N-(3,4,5-trifluorophenyl)-6,7-dihydro-4H-pyrazolo[1,5-a]pyrazine-5-carboxamide] showed an EC50 of 6 nM. This EC50 is about 2.7-fold lower than that of the compound before.
